# According to US20240287089A1, “Preparation and Uses of 7-Azaindenoisoquinolines” (Purdue Research Foundation, priority 0001, published 2024):
# Where two headings read alike, the source gives them in different places.
# Columns and labels:
# c-Myc [1] = experiment: Western blot of RS4;11 tumor xenograft tissue; format: in vivo, human
# Excerpt: (§1) In several cases, the levels of c-Myc were more greatly depressed at the lower dose level. For examples, see the 9-hour data for G104 in Tables 17 and 18 and the 6-hour data in Table 19. […] Overall, there are many unexpected and unexplained aspects of the data in Tables 17-19, which are highly variable and also highly dependent on cell type. In particular, drug-induced increases in c-Myc expression relative to control and the larger changes in c-Myc expression seen at lower vs. higher doses are counterintuitive and unexplained.
# γ-H2AX [2] = experiment: Western blot of MOLT-4 tumor xenograft tissue; format: in vivo, human
# Excerpt: as §1
# γ-H2AX [3] = experiment: Western blot of RS4;11 tumor xenograft tissue; format: in vivo, human
# in vivo = format: in vivo
# c-Myc [4] = experiment: Western blot of MOLT-4 tumor xenograft tissue; format: in vivo, human
# c-Myc [5] = experiment: Western blot of RD-ES tumor xenograft tissue; format: in vivo, human
# Excerpt: as §1
# γ-H2AX [6] = experiment: Western blot of RD-ES tumor xenograft tissue; format: in vivo, human
# Excerpt: as §1
# [7] = format: in vivo
compound,measurement,setting,value
"CCNCCCn1c2c(c3cc(OC)c(OC)cc3c1=O)C(=O)c1cc3c(nc1-2)OCO3 [G104, 6-(3-(Ethylamino)propyl)-2,3-dimethoxy-5H-[1,3]dioxolo[4″,5″:5′,6′]pyrido [3′,2′:4,5]cyclopenta[1,2-c]isoquinoline-5,12(6H)-dione]","c-Myc/GAPDH, % Relative to Vehicle","c-Myc [1]; RS4;11, IV 15 mg/kg, 3 h",92.20 ± 2.11%
same,"c-Myc/GAPDH, % Relative to Vehicle","c-Myc [1]; RS4;11, IV 15 mg/kg, 9 h",92.59 ± 13.64%
same,"c-Myc/GAPDH, % Relative to Vehicle","c-Myc [1]; RS4;11, IV 30 mg/kg, 3 h",111.60 ± 8.19%
same,"c-Myc/GAPDH, % Relative to Vehicle","c-Myc [1]; RS4;11, IV 30 mg/kg, 9 h",100.31 ± 2.71%
same,"γ-H2AX/GAPDH, % Relative to Vehicle","γ-H2AX [2]; MOLT-4, IV 15 mg/kg, 3 h",71.86 ± 8.95%
same,"γ-H2AX/GAPDH, % Relative to Vehicle","γ-H2AX [2]; MOLT-4, IV 15 mg/kg, 9 h",138.12 ± 23.51%
same,"γ-H2AX/GAPDH, % Relative to Vehicle","γ-H2AX [2]; MOLT-4, IV 30 mg/kg, 3 h",47.29 ± 12.20%
same,"γ-H2AX/GAPDH, % Relative to Vehicle","γ-H2AX [2]; MOLT-4, IV 30 mg/kg, 9 h",168.88 ± 39.58%
same,"γ-H2AX/GAPDH, % Relative to Vehicle","γ-H2AX [3]; RS4;11, IV 15 mg/kg, 3 h",133.08 ± 38.59%
same,"γ-H2AX/GAPDH, % Relative to Vehicle","γ-H2AX [3]; RS4;11, IV 15 mg/kg, 9 h",142.66 ± 23.92%
same,"γ-H2AX/GAPDH, % Relative to Vehicle","γ-H2AX [3]; RS4;11, IV 30 mg/kg, 3 h",150.28 ± 29.86%
same,"γ-H2AX/GAPDH, % Relative to Vehicle","γ-H2AX [3]; RS4;11, IV 30 mg/kg, 9 h",220.37 ± 47.79%
same,Kp at 3 h,"in vivo; NOD SCID, mouse, tumor and plasma, RS4;11, 3 h, IV 15 mg/kg, read-out: Mean Tumor/Plasma Ratio",76.1 ± 18.9
same,Mean Tumor/Plasma Ratio,"in vivo; RS4;11, 3 h, IV 30 mg/kg",77.3 ± 11.8
same,Mean Tumor/Plasma Ratio,"in vivo; RS4;11, 9 h, IV 15 mg/kg",130 ± 32
same,Mean Tumor/Plasma Ratio,"in vivo; RS4;11, 9 h, IV 30 mg/kg",112 ± 16
same,"c-Myc/GAPDH, % Relative to Vehicle","c-Myc [4]; MOLT-4, IV 15 mg/kg, 3 h",119.75 ± 13.40%
same,"c-Myc/GAPDH, % Relative to Vehicle","c-Myc [4]; MOLT-4, IV 15 mg/kg, 9 h",88.54 ± 7.63%
same,"c-Myc/GAPDH, % Relative to Vehicle","c-Myc [4]; MOLT-4, IV 30 mg/kg, 3 h",114.32 ± 4.41%
same,"c-Myc/GAPDH, % Relative to Vehicle","c-Myc [4]; MOLT-4, IV 30 mg/kg, 9 h",100.33 ± 2.35%
same,"c-Myc/GAPDH, % Relative to Vehicle","c-Myc [5]; IV 15 mg/kg, 3 h",128.94 ± 6.14%
same,"c-Myc/GAPDH, % Relative to Vehicle","c-Myc [5]; IV 15 mg/kg, 6 h",53.57 ± 10.75%
same,"c-Myc/GAPDH, % Relative to Vehicle","c-Myc [5]; IV 30 mg/kg, 3 h",188.78 ± 28.24%
same,"c-Myc/GAPDH, % Relative to Vehicle","c-Myc [5]; IV 30 mg/kg, 6 h",91.67 ± 23.70%
same,"γ-H2AX/GAPDH, % Relative to Vehicle","γ-H2AX [6]; IV 15 mg/kg, 3 h",155.18 ± 11.44%
same,"γ-H2AX/GAPDH, % Relative to Vehicle","γ-H2AX [6]; IV 15 mg/kg, 6 h",101.89 ± 7.35%
same,"γ-H2AX/GAPDH, % Relative to Vehicle","γ-H2AX [6]; IV 30 mg/kg, 3 h",85.61 ± 23.26%
same,"γ-H2AX/GAPDH, % Relative to Vehicle","γ-H2AX [6]; IV 30 mg/kg, 6 h",99.26 ± 10.19%
same,Mean Tumor/Plasma Ratio,"[7]; MOLT-4, 3 h, IV 15 mg/kg",51.3 ± 6.7
same,Mean Tumor/Plasma Ratio,"[7]; MOLT-4, 3 h, IV 30 mg/kg",69.5 ± 8.8
same,Mean Tumor/Plasma Ratio,"[7]; MOLT-4, 9 h, IV 15 mg/kg",125 ± 29
same,Mean Tumor/Plasma Ratio,"[7]; MOLT-4, 9 h, IV 30 mg/kg",106 ± 21
